In experiment [1] the test system is BRCA1 mRNA expression in MDA-MB-231 cells. Put plainly: qRT-PCR assay: BRCA1 mRNA expression in MDA-MB-231. It is filed as cell-based, human. The settings on record: Homo sapiens, MDA-MB-231, Inhibition of BRCA1 mRNA expression in MDA-MB-231 cells; median; read-out: RTqPCR-MDA-MB-231, IC50, BRCA1 (median). A digest of the protocol: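 BRCA1 transcript by RT-qPCR relative to GAPDH, from 600 ng RNA converted to cDNA. MDA-MB-231 cells plated at 200,000/well received test compound continuously for 24 h, starting 24 h post-seeding.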

The next experiment deals with T1, CDK9/CycT1 (Homo sapiens, UniProt P50750).
T1 construct: Recombinant full-length His-tagged human CDK9 and CycT1; purchased Life Technologies PV4131; host or cells: insect cells
In words: CDK9/CycT1 high ATP kinase assay (TR-FRET, 2 mM ATP). The class given is biochemical. Particulars: 2 mM ATP (high ATP); median; read-out: CDK9/CyclinT1, 2 mM ATP (high ATP), IC50 (median). The essentials: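 Full-length His-tagged human CDK9/CycT1 (insect cell, ~0.5 μg/mL) preincubated 15 min at 22 °C with compound in Tris pH 8.0, MgCl2, DTT buffer before reaction with biotinylated peptide substrate at high ATP (2 mM).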
(In TR-FRET formats the signal depends on donor and acceptor labels being close together.)

In experiment [2] the target is T2, CDK12 (nuclear staining in CAL-120 cells) (Homo sapiens, UniProt Q9NYV4).
T2 construct: endogenous in cells; host or cells: CAL-120 human breast cancer cells (DSMZ ACC 459)
Put plainly: CDK12 nuclear protein level: immunofluorescence/high content analysis (CAL-120). The class given is cell-based. Particulars: for DC50: CAL-120 cells, 24 h, immunofluorescence, 50% reduction of nuclear CDK12 staining intensity, median, read-out: CDK12 degradation IF, DC50- [mol/l] (median); for (IC50 CDK12 high ATP) to (Degradation DC50 CDK12) ratio: ratio of IC50 CDK12 high ATP kinase assay to DC50 CDK12 degradation (IF, CAL-120). A digest of the protocol: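 DC50 is the degrader concentration that halves nuclear CDK12 immunofluorescence relative to controls, measured by high-content imaging. CAL-120 cells were exposed to compound for 24 h at 37 °C before PFA fixation, and signal was normalized to DMSO and control wells.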

The source of these data is patent publication US20230117034A1, “PYRAZOLOTRIAZINES” (Bayer Aktiengesellschaft, priority 2019, published 2023).

T1 sequence (P50750 whole entry): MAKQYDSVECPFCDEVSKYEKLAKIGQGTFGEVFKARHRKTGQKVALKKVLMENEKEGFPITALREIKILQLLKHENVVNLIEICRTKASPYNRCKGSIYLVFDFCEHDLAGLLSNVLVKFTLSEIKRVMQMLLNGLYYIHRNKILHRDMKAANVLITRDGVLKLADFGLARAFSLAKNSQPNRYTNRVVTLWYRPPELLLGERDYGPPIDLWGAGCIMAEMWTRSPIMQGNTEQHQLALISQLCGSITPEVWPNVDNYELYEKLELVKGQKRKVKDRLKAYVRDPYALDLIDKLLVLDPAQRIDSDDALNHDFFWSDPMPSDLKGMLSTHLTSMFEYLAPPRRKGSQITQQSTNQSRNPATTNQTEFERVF
T1 sequence (O60563 whole entry partner): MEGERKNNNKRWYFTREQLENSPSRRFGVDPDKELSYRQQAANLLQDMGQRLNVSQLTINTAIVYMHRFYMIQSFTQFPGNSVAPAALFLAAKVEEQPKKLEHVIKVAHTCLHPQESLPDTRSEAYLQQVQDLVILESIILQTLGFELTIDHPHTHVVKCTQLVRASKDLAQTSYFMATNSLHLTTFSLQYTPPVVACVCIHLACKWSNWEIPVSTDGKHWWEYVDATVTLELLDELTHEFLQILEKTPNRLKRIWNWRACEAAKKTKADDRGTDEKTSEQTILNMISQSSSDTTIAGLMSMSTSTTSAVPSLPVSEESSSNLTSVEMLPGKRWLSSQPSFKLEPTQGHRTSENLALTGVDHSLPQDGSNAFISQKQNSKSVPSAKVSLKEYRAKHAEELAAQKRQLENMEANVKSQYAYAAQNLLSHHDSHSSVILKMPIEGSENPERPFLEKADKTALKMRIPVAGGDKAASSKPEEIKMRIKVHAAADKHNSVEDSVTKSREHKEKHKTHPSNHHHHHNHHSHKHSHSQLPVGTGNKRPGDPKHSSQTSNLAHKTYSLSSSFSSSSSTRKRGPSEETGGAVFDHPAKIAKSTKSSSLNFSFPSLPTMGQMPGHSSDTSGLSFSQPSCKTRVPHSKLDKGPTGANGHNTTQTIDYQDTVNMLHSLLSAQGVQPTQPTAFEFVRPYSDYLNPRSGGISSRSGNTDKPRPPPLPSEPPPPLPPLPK
T2 sequence (Q9NYV4 whole entry): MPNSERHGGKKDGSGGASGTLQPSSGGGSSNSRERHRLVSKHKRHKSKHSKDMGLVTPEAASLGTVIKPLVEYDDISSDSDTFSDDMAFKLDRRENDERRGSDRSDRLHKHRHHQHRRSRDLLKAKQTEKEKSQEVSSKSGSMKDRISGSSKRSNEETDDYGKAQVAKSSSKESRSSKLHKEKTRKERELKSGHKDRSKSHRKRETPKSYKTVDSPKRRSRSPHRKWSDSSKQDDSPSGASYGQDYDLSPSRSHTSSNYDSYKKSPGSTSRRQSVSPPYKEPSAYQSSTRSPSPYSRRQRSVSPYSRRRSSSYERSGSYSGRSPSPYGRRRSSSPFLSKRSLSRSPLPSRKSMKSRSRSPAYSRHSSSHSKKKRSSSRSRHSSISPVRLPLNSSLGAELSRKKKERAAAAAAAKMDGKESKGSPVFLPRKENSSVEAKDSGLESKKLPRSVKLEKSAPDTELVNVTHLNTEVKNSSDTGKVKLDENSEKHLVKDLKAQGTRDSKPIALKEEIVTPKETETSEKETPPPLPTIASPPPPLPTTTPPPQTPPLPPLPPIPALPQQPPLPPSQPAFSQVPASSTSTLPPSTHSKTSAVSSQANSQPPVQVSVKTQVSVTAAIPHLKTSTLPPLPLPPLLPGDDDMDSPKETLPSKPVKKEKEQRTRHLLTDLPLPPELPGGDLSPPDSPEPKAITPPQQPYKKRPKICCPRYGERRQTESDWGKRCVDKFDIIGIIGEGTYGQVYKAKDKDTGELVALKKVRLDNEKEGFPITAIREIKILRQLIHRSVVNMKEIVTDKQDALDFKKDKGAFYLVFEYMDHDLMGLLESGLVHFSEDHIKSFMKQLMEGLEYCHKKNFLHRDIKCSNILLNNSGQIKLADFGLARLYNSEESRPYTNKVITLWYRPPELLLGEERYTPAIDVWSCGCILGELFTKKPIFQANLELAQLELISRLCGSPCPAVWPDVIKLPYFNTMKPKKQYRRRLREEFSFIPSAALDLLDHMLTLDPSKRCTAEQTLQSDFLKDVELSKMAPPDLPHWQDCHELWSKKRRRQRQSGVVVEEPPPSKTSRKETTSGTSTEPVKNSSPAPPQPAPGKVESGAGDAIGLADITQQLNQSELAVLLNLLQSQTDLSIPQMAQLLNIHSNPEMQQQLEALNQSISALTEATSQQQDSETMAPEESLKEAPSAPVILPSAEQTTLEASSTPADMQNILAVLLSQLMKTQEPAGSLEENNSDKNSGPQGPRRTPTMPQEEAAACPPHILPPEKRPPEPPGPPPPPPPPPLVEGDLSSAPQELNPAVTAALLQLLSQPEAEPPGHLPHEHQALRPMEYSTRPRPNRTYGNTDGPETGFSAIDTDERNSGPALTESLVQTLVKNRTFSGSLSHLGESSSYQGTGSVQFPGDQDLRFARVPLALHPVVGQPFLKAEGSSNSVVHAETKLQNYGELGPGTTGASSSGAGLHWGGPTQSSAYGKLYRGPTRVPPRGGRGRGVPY
T2 sequence (O75909 whole entry partner): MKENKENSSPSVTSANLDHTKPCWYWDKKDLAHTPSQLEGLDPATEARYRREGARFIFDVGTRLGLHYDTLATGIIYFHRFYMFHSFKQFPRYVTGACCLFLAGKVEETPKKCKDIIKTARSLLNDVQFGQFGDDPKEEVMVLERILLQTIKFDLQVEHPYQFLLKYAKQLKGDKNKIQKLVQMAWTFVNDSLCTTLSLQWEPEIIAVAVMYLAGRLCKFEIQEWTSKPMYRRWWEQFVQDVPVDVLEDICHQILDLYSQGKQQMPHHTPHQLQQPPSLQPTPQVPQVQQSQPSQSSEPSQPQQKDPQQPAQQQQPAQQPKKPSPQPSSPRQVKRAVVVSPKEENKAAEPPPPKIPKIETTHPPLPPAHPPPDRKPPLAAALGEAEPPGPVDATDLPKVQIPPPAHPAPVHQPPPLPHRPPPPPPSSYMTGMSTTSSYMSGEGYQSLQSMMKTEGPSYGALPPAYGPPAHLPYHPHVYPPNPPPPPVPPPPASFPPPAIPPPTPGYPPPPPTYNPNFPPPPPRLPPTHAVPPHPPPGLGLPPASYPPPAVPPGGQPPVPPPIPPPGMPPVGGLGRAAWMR

With `OCC1COCCN1c1nc(NCc2nc3ccccc3[nH]2)n2ncc(Br)c2n1` (centres unmarked) [Example 67, (4-{4-[(1H-benzimidazol-2-ylmethyl)amino]-8-bromopyrazolo[1,5-a][1,3,5]triazin-2-yl}morpholin-3-yl)methanol], the IC50 in experiment [1] came to 24.8 nM. Moreover, at CDK9/CycT1, the IC50 was greater than 19400 nM. In experiment [2], the DC50 was 3.77 nM and the “(IC50 CDK12 high ATP) to (Degradation DC50 CDK12) ratio” value was 727.
For the compound `FC(F)(F)Oc1cccc(-c2cnc(CNc3nc(N4CCOCC4)nc4c(Br)cnn34)[nH]2)c1` [Example 82, 8-bromo-2-(morpholin-4-yl)-N-({5-[3-(trifluoromethoxy)phenyl]-1H-imidazol-2-yl}methyl)pyrazolo[1,5-a][1,3,5]triazin-4-amine], the IC50 on CDK9/CycT1 was 12600 nM. In experiment [2], the DC50 stood at 22.3 nM and the “(IC50 CDK12 high ATP) to (Degradation DC50 CDK12) ratio” value is 41.
Consider `FC(F)(F)c1ccccc1-c1cnc(CNc2nc(N3CCOCC3)nc3c(Br)cnn23)[nH]1` [Example 88, 8-bromo-2-(morpholin-4-yl)-N-({5-[2-(trifluoromethyl)phenyl]-1H-imidazol-2-yl}methyl)pyrazolo[1,5-a][1,3,5]triazin-4-amine], for which, at CDK9/CycT1, the IC50 came out at 6420 nM. In addition, in experiment [2], the DC50 was found to be 16.3 nM and the “(IC50 CDK12 high ATP) to (Degradation DC50 CDK12) ratio” value was 84.
In the case of `CC(C)c1cnn2c(NCc3nc4ccccc4[nH]3)nc(N(C)C)nc12` [Example 3, N^4-[(1H-benzimidazol-2-yl)methyl]-N^2,N^2-dimethyl-8-(propan-2-yl)pyrazolo[1,5-a][1,3,5]triazine-2,4-diamine], the IC50 on CDK9/CycT1 was greater than 20000 nM. Moreover, in experiment [2], the DC50 was 94.5 nM and the “(IC50 CDK12 high ATP) to (Degradation DC50 CDK12) ratio” value is on record as greater than 212.
On the same counts, the results for `O[C@@H]1CCN(c2nc(NCc3nc4ccccc4[nH]3)n3ncc(Br)c3n2)C1` [Example 202, (3R)-1-(4-{[(1H-benzimidazol-2-yl)methyl]amino}-8-bromopyrazolo[1,5-a][1,3,5]triazin-2-yl)pyrrolidin-3-ol] are greater than 20000 nM, 31.8 nM and 518.
For `Fc1ccccc1-c1nnc(CNc2nc(N3CCOCC3)nc3c(Br)cnn23)[nH]1` [Example 75, 8-bromo-N-{[5-(2-fluorophenyl)-4H-1,2,4-triazol-3-yl]methyl}-2-(morpholin-4-yl)pyrazolo[1,5-a][1,3,5]triazin-4-amine] the same measures were greater than 6150 nM, 7.38 nM and greater than 511.
Consider `CN1CCN(c2nc(NCc3nc4cc(Cl)c(Cl)cc4[nH]3)n3ncc(C4CC4)c3n2)CC1` [Example 305, 8-cyclopropyl-N-[(5,6-dichloro-1H-benzimidazol-2-yl)methyl]-2-(4-methylpiperazin-1-yl)pyrazolo[1,5-a][1,3,5]triazin-4-amine], for which the IC50 in experiment [1] was 6.23 nM; on CDK9/CycT1, greater than 20000 nM.
For the compound `Clc1ccccc1-c1nnc(CNc2nc(N3CCOCC3)nc3c(Br)cnn23)[nH]1` [Example 69, 8-bromo-N-{[5-(2-chlorophenyl)-4H-1,2,4-triazol-3-yl]methyl}-2-(morpholin-4-yl)pyrazolo[1,5-a][1,3,5]triazin-4-amine], the IC50 on CDK9/CycT1 is 8350 nM. Moreover, in experiment [2], the DC50 is 84.5 nM and the “(IC50 CDK12 high ATP) to (Degradation DC50 CDK12) ratio” value is given as greater than 68.
As for `C[C@@H]1CN(c2nc(NCc3nnc(-c4ccccc4)[nH]3)n3ncc(Br)c3n2)C[C@H](C)O1` [Example 78, 8-bromo-2-[(2R,6S)-2,6-dimethylmorpholin-4-yl]-N-[(5-phenyl-4H-1,2,4-triazol-3-yl)methyl]pyrazolo[1,5-a][1,3,5]triazin-4-amine], the IC50 on CDK9/CycT1 turned out to be 768 nM. In experiment [2], the DC50 amounted to 5.15 nM and the “(IC50 CDK12 high ATP) to (Degradation DC50 CDK12) ratio” value is listed as 141.
As to `COC1CCN(c2nc(NCc3nnc(-c4ccccc4)[nH]3)n3ncc(Br)c3n2)CC1` [Example 76, 8-bromo-2-(4-methoxypiperidin-1-yl)-N-[(5-phenyl-4H-1,2,4-triazol-3-yl)methyl]pyrazolo[1,5-a][1,3,5]triazin-4-amine], the IC50 at CDK9/CycT1 amounted to 7850 nM. Also, in experiment [2], the DC50 was 12.1 nM and the “(IC50 CDK12 high ATP) to (Degradation DC50 CDK12) ratio” value is given as greater than 440.
For `Fc1cccc(-c2cnc(CNc3nc(N4CCOCC4)nc4c(Br)cnn34)[nH]2)c1` [Example 79, 8-bromo-N-{[5-(3-fluorophenyl)-1H-imidazol-2-yl]methyl}-2-(morpholin-4-yl)pyrazolo[1,5-a][1,3,5]triazin-4-amine] the same measures were 2530 nM, 1.23 nM and 460.
For `FC(F)(F)c1cccc(-c2cnc(CNc3nc(N4CCOCC4)nc4c(Br)cnn34)[nH]2)c1` [Example 83, 8-bromo-2-(morpholin-4-yl)-N-({5-[3-(trifluoromethyl)phenyl]-1H-imidazol-2-yl}methyl)pyrazolo[1,5-a][1,3,5]triazin-4-amine], the IC50 on CDK9/CycT1 was 6790 nM. For the same compound, in experiment [2], the DC50 amounted to 9.37 nM and the “(IC50 CDK12 high ATP) to (Degradation DC50 CDK12) ratio” value was found to be 111.
On the same counts, the results for `FC(F)(F)Oc1ccccc1-c1cnc(CNc2nc(N3CCOCC3)nc3c(Br)cnn23)[nH]1` [Example 89, 8-bromo-2-(morpholin-4-yl)-N-({5-[2-(trifluoromethoxy)phenyl]-1H-imidazol-2-yl}methyl)pyrazolo[1,5-a][1,3,5]triazin-4-amine] are greater than 20000 nM, 7.3 nM and 1471.
With `FC(F)(F)Oc1ccccc1-c1nnc(CNc2nc(N3CCOCC3)nc3c(Br)cnn23)[nH]1` [Example 74, 8-bromo-2-(morpholin-4-yl)-N-({5-[2-(trifluoromethoxy)phenyl]-4H-1,2,4-triazol-3-yl}methyl)pyrazolo[1,5-a][1,3,5]triazin-4-amine], the IC50 on CDK9/CycT1 was greater than 20000 nM. For the same compound, the DC50 in experiment [2] worked out at 57.4 nM.
As to `Clc1cccc(-c2cnc(CNc3nc(N4CCOCC4)nc4c(Br)cnn34)[nH]2)c1` [Example 81, 8-bromo-N-{[5-(3-chlorophenyl)-1H-imidazol-2-yl]methyl}-2-(morpholin-4-yl)pyrazolo[1,5-a][1,3,5]triazin-4-amine], the IC50 on CDK9/CycT1 is 5390 nM. Also, in experiment [2], the DC50 worked out at 5.31 nM and the “(IC50 CDK12 high ATP) to (Degradation DC50 CDK12) ratio” value stood at 144.
Take `COC(=O)C1CCN(c2nc(NCc3nnc(-c4ccccc4)[nH]3)n3ncc(Br)c3n2)CC1` [Example 77, methyl 1-(8-bromo-4-{[(5-phenyl-4H-1,2,4-triazol-3-yl)methyl]amino}pyrazolo[1,5-a][1,3,5]triazin-2-yl)piperidine-4-carboxylate]: the IC50 on CDK9/CycT1 turned out to be 12900 nM. Further, in experiment [2], the DC50 was determined as 116 nM and the “(IC50 CDK12 high ATP) to (Degradation DC50 CDK12) ratio” value is recorded as 87.
Consider `c1ccc(-c2nnc(CNc3nc(N4CCOCC4)nc4c(C5CC5)cnn34)[nH]2)cc1` [Example 93, 8-cyclopropyl-2-(morpholin-4-yl)-N-[(5-phenyl-4H-1,2,4-triazol-3-yl)methyl]pyrazolo[1,5-a][1,3,5]triazin-4-amine], for which the IC50 on CDK9/CycT1 worked out at 8590 nM. Further, in experiment [2], the DC50 amounted to 23.3 nM and the “(IC50 CDK12 high ATP) to (Degradation DC50 CDK12) ratio” value was determined as 116.
